Literature values, collected in patent US12280058B2, “Gasotransmitter metabolites and Alzheimer's disease” (Board of Supervisors of Louisiana State University and …, priority 2020, dated 2025).

Experiments:
CSE = CSE (Homo sapiens, UniProt P32929); settings: read-out: IC50 (CSE inhibitor)
infarct = settings: administration

Chain of CSE (P32929 whole entry, species assumed): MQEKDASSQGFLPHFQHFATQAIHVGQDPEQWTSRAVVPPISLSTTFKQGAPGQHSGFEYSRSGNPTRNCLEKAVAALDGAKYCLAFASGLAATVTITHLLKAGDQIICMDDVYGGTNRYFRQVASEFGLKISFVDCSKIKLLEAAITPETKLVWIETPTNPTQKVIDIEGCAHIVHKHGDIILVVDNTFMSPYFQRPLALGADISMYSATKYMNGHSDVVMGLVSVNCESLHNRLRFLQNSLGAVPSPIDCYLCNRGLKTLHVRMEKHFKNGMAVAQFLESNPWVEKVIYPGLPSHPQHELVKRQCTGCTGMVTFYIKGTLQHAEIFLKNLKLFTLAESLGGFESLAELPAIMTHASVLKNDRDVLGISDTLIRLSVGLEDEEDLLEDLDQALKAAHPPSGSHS

| SMILES | IC50 (CSE) [µM] | infarct volume / size of infarct (infarct) |
| --- | --- | --- |
| C#CC[C@H](N)C(=O)O | 40 |  |
| NCCO/C=C/[C@H](N)C(=O)O [L-aminoethoxyvinylglycine] | < 1 |  |
| CCOc1ccc2nc(Sc3nc(Nc4cccc([N+](=O)[O-])c4)nc(Nc4cc(OC)ccc4OC)n3)sc2c1 [compound 1157172, 2-[(4-(2,5-dimethoxyanilino)-6-(3-nitroanilino)-1,3,5-triazin-2-yl)sulfanyl]-6-ethoxy-1,3-benzothiazole] | 30 |  |
| S [sodium hydrosulfide] |  | increased infarct volume |
